Data: PMC11091072, “Targeting bacterial nickel transport with aspergillomarasmine A suppresses virulence-associated Ni-dependent enzymes” (Nature Communications, 2024)
Where “and” joins values, the source holds several entries; their conditions need not be identical. Equal values may be shown once. Read-outs that look alike come from different tables or passages of the source.

Legend:
K. pneumoniae = type: cell-based, Klebsiella pneumoniae; conditions: 200 μM, 24 h exposure
[1] = system: cellular Ni and Zn content of K. pneumoniae; experiment: Cellular metal analysis by ICP-MS (60Ni, 66Zn); type: cell-based, Klebsiella pneumoniae
Protocol: The cellular Zn^2+ and Ni^2+ content of K. pneumoniae was carried out according to the method described by Maunders et al.[66] with some modifications. An overnight culture of K. pneumoniae was diluted 1/200 in LB medium (5 mL) and was either untreated or treated with 0.2 mM AMA or Zn-AMA. The cells were grown for 16 h at 37 °C, harvested by centrifugation, and washed twice with PBS containing 5 mM EDTA and twice with ultra-pure water. The cell pellet was subsequently digested in 0.25 mL 65% HNO3 at 80 °C for 30 minutes in borosilicate glass tubes using a water bath. The samples were diluted to 2% HNO3 and filtered through a 0.45 μm syringe filter. ^60Ni and ^66Zn were quantified using a Thermo iCAP Q ICP-MS.

[2] = system: S. aureus urease activity (whole cell); type: cell-based, Staphylococcus aureus; conditions: artificial urine, 24 h; for Staphylococcus aureus urease-dependent pH change (pH): 37 °C
HEK293 cells = experiment: HEK293 cytotoxicity assay (Cell Titer Glo 2.0)
S. aureus = type: cell-based, Staphylococcus aureus; conditions: 200 μM, 24 h
[3] = system: [NiFe]-hydrogenase (Hyd-3); experiment: Whole-cell [NiFe] hydrogenase assay (benzyl viologen reduction); type: cell-based, Klebsiella pneumoniae
Excerpt: We reasoned that disruption of Ni^2+ uptake and homeostasis should also perturb the activity of other Ni-dependent enzymes. To examine this possibility, we tested the effects of free AMA and Zn-AMA on Ni-dependent hydrogen metabolism in bacteria. […] K. pneumoniae produces a single [NiFe]-hydrogenase (Hyd-3) as part of the H2-evolving formate hydrogenlyase (FHL) complex and is encoded by the hyc operon (Fig S8)[21]. […] To measure [NiFe]-hydrogenase-catalyzed H2 […], benzyl viologen was used as an artificial electron acceptor, as previously described. Although Hyd-3 is involved in the evolution of H2, previous work in E. coli has shown that it is responsible for 90% of the hydrogen-dependent benzyl viologen reduction in crude extracts and whole-cell assays[41]–[44].
The whole-cell hydrogenase activity in K. pneumoniae was based on a modified method described by Lacasse et al.[41] […] The cell suspension was diluted 1/100 in LB supplemented with 0.8% glucose, 10 mM MgCl2, and 10 mM potassium phosphate, pH 7.2. […] Following an 18-hour incubation, whole-cell [NiFe] hydrogenase activity was monitored by adding benzyl viologen (1 mg/mL) to each well, followed by continuous monitoring of the change in absorbance at 630 nm using a BioTek Synergy H1 microplate reader in an anaerobic glove box.

[4] = system: K. pneumoniae urease activity (whole cell); experiment: microbe, parasite or virus in culture; type: cell-based, Klebsiella pneumoniae ATCC 33495; conditions: artificial urine; for K. pneumoniae urease-dependent pH change (pH): 37 °C
[5] = system: struvite crystallization in K. pneumoniae cultures; experiment: Struvite crystal nucleation in artificial urine cultures; type: cell-based, Klebsiella pneumoniae
Excerpt: A The metal complexed structure, selectivity, and affinity of AMA. The constituents of AMA are labeled L-aspartate (L-Asp) and 2,3-diaminopropionic acid (APA). B Dose-response urease inhibition assays in K. pneumoniae. […] C Dose-response effect of AMA and Zn-AMA on the nucleation of struvite crystals in K. pneumoniae cultures grown in artificial urine. Crystals were examined microscopically in 96-well plates and visually quantified. […] The data represent the representative mean of two replicates. D Quantification of planktonic growth and crystal violet-stained biofilms of K. pneumoniae grown in artificial urine and varying concentrations of Zn-AMA. […] Data represent mean ± s.d. of four technical replicates. E ICP-MS quantification of cellular ^60Ni and ^66Zn content in K. pneumoniae untreated or treated with 200 μM AMA, or Zn-AMA. […] Whole-cell hydrogenase assays were performed by adding benzyl viologen (BV) at a final concentration of 1 mg/mL and monitoring its reduction at an absorbance of 630 nm. Data represent the mean of two technical replicates.
FIG S5 Microscopic detection of struvite crystals grown in artificial urine cultures of K. pneumoniae. Top row, the concentration-dependent effect of AMA on struvite formation. Bottom row, the concentration-dependent effect of Zn-AMA on struvite formation.
Bacteria were grown in 96 well flat-bottom plates for 24h at 37 °C. Brightfield micrographs were taken with a BioTek Cytation cell imaging reader at 4x magnification. Four images were taken per well and were digitally stitched to generate whole-well images. […]

[6] = K. pneumoniae treated with 200 μM

Question: `N[C@@H](CN[C@@H](CN[C@@H](CC(=O)O)C(=O)O)C(=O)O)C(=O)O.[Zn+2]` [Zn-AMA] was tested. Which “bacterial viability (spot dilutions)” value (K. pneumoniae) did it give?
Answer: do not affect bacterial viability

Question: What about the “effect on intracellular Ni^2+ levels” value ([1]; 200 μM, ICP-MS) of the same compound?
Answer: reduced intracellular Ni^2+ levels

Question: What about the “effect on intracellular Zn^2+ levels” value ([1]; 200 μM, ICP-MS) of the same compound?
Answer: without affecting Zn^2+ levels

Question: And the “ICP-MS cellular Ni” value [1, 6]?
Answer: 2.15 µM and 2.37 µM

Question: What about the “ICP-MS cellular Zn” value [1, 6] of the same compound?
Answer: 0.81 µM and 0.97 µM

Question: What about the “Staphylococcus aureus urease-dependent pH change (pH)” value ([2]; 0.19 μM) of the same compound?
Answer: 7.24 and 7.25

Question: What about the “Staphylococcus aureus urease-dependent pH change (pH)” value ([2]; 0.39 μM) of the same compound?
Answer: 7.28 and 7.12

Question: What about the “Staphylococcus aureus urease-dependent pH change (pH)” value ([2]; 0.78 μM) of the same compound?
Answer: 6.95 and 7.00

Question: What about the “Staphylococcus aureus urease-dependent pH change (pH)” value ([2]; 1.56 μM) of the same compound?
Answer: 6.76 and 6.81

Question: What about the “Staphylococcus aureus urease-dependent pH change (pH)” value ([2]; 3.12 μM) of the same compound?
Answer: 6.56 and 6.59

Question: And the “Staphylococcus aureus urease-dependent pH change (pH)” value ([2]; 6.25 μM)?
Answer: 6.45 and 6.49

Question: What about the “Staphylococcus aureus urease-dependent pH change (pH)” value ([2]; 12.5 μM) of the same compound?
Answer: 6.41 and 6.45

Question: And the “Staphylococcus aureus urease-dependent pH change (pH)” value ([2]; 25 μM)?
Answer: 6.38 and 6.40

Question: And the “Staphylococcus aureus urease-dependent pH change (pH)” value ([2]; 50 μM)?
Answer: 6.39 and 6.40

Question: And the “Staphylococcus aureus urease-dependent pH change (pH)” value ([2]; 100 μM)?
Answer: 6.37 and 6.40

Question: And the “Staphylococcus aureus urease-dependent pH change (pH)” value ([2]; 200 μM)?
Answer: 6.41 and 6.39

Question: And the “effect on urease activity” value ([2]; S. aureus)?
Answer: inhibited urease activity similarly

Question: And the “cytotoxicity toward HEK293” value (HEK293 cells; 48 h, up to 512 μg/mL (~1.4 mM))?
Answer: no significant cytotoxicity

Question: What about the IC50 (HEK293 cells; Homo sapiens, HEK293, 48 h, read-out: IC50 (HEK293 viability)) of the same compound?
Answer: > 512 µg/mL

Question: And the “HEK 293T cytotoxicity assay raw signal” value (HEK293 cells; Zn-AMA 0.5 μg/mL)?
Answer: 787289 and 688554 and 688484

Question: And the “HEK 293T cytotoxicity assay raw signal” value (HEK293 cells; Zn-AMA 1 μg/mL)?
Answer: 778862 and 676746 and 680280

Question: What about the “HEK 293T cytotoxicity assay raw signal” value (HEK293 cells; Zn-AMA 2 μg/mL) of the same compound?
Answer: 730695 and 661495 and 777158

Question: And the “HEK 293T cytotoxicity assay raw signal” value (HEK293 cells; Zn-AMA 4 μg/mL)?
Answer: 783723 and 676080 and 794996

Question: And the “HEK 293T cytotoxicity assay raw signal” value (HEK293 cells; Zn-AMA 8 μg/mL)?
Answer: 742661 and 700936 and 674120

Question: And the “HEK 293T cytotoxicity assay raw signal” value (HEK293 cells; Zn-AMA 16 μg/mL)?
Answer: 815769 and 690170 and 672316

Question: And the “HEK 293T cytotoxicity assay raw signal” value (HEK293 cells; Zn-AMA 32 μg/mL)?
Answer: 682089 and 773769 and 699603

Question: And the “HEK 293T cytotoxicity assay raw signal” value (HEK293 cells; Zn-AMA 64 μg/mL)?
Answer: 773018 and 718789 and 808685

Question: What about the “HEK 293T cytotoxicity assay raw signal” value (HEK293 cells; Zn-AMA 128 μg/mL) of the same compound?
Answer: 636555 and 716494 and 658016

Question: What about the “HEK 293T cytotoxicity assay raw signal” value (HEK293 cells; Zn-AMA 256 μg/mL) of the same compound?
Answer: 744022 and 626132 and 622056

Question: And the “HEK 293T cytotoxicity assay raw signal” value (HEK293 cells; Zn-AMA 512 μg/mL)?
Answer: 618617 and 604431 and 563165

Question: What about the “bacterial viability (spot dilutions)” value (S. aureus) of the same compound?
Answer: not lethal to bacteria

Question: What about the “Benzyl viologen hydrogenase assay (activity)” value ([3]; 1.5625 μM) of the same compound?
Answer: 9.43 and 9.72

Question: And the “Benzyl viologen hydrogenase assay (activity)” value ([3]; 3.125 μM)?
Answer: 9.23 and 9.47

Question: What about the “Benzyl viologen hydrogenase assay (activity)” value ([3]; 6.25 μM) of the same compound?
Answer: 8.98 and 9.82

Question: What about the “Benzyl viologen hydrogenase assay (activity)” value ([3]; 12.5 μM) of the same compound?
Answer: 9.03 and 8.64

Question: And the “Benzyl viologen hydrogenase assay (activity)” value ([3]; 25 μM)?
Answer: 7.51 and 6.87

Question: And the “Benzyl viologen hydrogenase assay (activity)” value ([3]; 50 μM)?
Answer: 5.01 and 4.71

Question: And the “Benzyl viologen hydrogenase assay (activity)” value ([3]; 100 μM)?
Answer: 2.11

Question: What about the “Benzyl viologen hydrogenase assay (activity)” value ([3]; 200 μM) of the same compound?
Answer: 0.69 and 0.39

Question: And the EC50 ([3]; read-out: EC50, Hyd-3 [NiFe]-hydrogenase inhibition, LB-glucose, anaerobic, whole cell, benzyl viologen)?
Answer: 50.8 ± 4.4 µM

Question: And the “K. pneumoniae urease-dependent pH change (pH)” value ([4]; 0.19 μM, 24 h)?
Answer: 8.14 and 8.10

Question: What about the “K. pneumoniae urease-dependent pH change (pH)” value ([4]; 0.39 μM, 24 h) of the same compound?
Answer: 8.08 and 8.00

Question: What about the “K. pneumoniae urease-dependent pH change (pH)” value ([4]; 0.78 μM, 24 h) of the same compound?
Answer: 7.84 and 7.81

Question: And the “K. pneumoniae urease-dependent pH change (pH)” value ([4]; 1.56 μM, 24 h)?
Answer: 7.60 and 7.55

Question: And the “K. pneumoniae urease-dependent pH change (pH)” value ([4]; 3.12 μM, 24 h)?
Answer: 7.41 and 7.27

Question: And the “K. pneumoniae urease-dependent pH change (pH)” value ([4]; 6.25 μM, 24 h)?
Answer: 7.11

Question: What about the “K. pneumoniae urease-dependent pH change (pH)” value ([4]; 12.5 μM, 24 h) of the same compound?
Answer: 6.87 and 6.85

Question: What about the “K. pneumoniae urease-dependent pH change (pH)” value ([4]; 25 μM, 24 h) of the same compound?
Answer: 6.76 and 6.71

Question: What about the “K. pneumoniae urease-dependent pH change (pH)” value ([4]; 50 μM, 24 h) of the same compound?
Answer: 6.66 and 6.60

Question: And the “K. pneumoniae urease-dependent pH change (pH)” value ([4]; 100 μM, 24 h)?
Answer: 6.65 and 6.54

Question: What about the “K. pneumoniae urease-dependent pH change (pH)” value ([4]; 200 μM, 24 h) of the same compound?
Answer: 6.80 and 6.56

Question: What about the “concentration that significantly suppressed urease activity” value ([4]; K. pneumoniae, 24 h) of the same compound?
Answer: 50 µM

Question: And the EC50 ([4]; Klebsiella pneumoniae, K. pneumoniae, read-out: EC50, half-maximal effective concentration required to suppress urease-dependent pH change)?
Answer: 2.5 ± 0.4 µM

Question: What about the “Struvite crystal quantification (count)” value ([5]; 3.12 μM) of the same compound?
Answer: 25 and 43

Question: And the “Struvite crystal quantification (count)” value ([5]; 6.25 μM)?
Answer: 42 and 62

Question: What about the “Struvite crystal quantification (count)” value ([5]; 12 μM) of the same compound?
Answer: 48 and 82

Question: And the “Struvite crystal quantification (count)” value ([5]; 50 μM)?
Answer: 0

Question: And the “Struvite crystal quantification (count)” value ([5]; 100 μM)?
Answer: 0

Question: What about the “Struvite crystal quantification (count)” value ([5]; 200 μM) of the same compound?
Answer: 0

Question: And the “effect on struvite crystals” value ([5]; K. pneumoniae, artificial urine)?
Answer: robustly prevented the appearance of struvite crystals
